{
  "source": "paper PMC9854712",
  "about": "(Antioxidants, 2023)",
  "key": {"184B5 cells": {"system": "184B5 cells", "test": "MTT cell viability assay, 184B5 (non-tumorigenic)", "assay_type": "cell-based", "settings": "Homo sapiens, 48 h, nonmalignant mammary gland", "procedure": "(§1) The cell lines were obtained from the American Type Culture Collection (ATCC). Five tumor cell lines (MDA-MB-231, MCF-7, HCT116, HTB-54, and DU-145) and two non-tumorigenic cells (184B5 and BEAS-2B) were grown in RPMI 1640 medium (Gibco), and the HT-29 tumor cell line was grown in McCoy’s medium. Both mediums were supplemented with 10% fetal bovine serum (FBS; Gibco) and 1% antibiotics (10.00 units/mL penicillin and 10.00 μg/mL streptomycin; Gibco). Cells were preserved in tissue culture flasks at 37 °C and 5% CO2. The culture medium was replaced every three days.\n(§2) The effect of each compound on cell viability was tested using the MTT assay. […] Selected compounds were then tested at seven different concentrations (0.5–100 μM) in MCF-7, HCT116, HT-29, HTB-54, 184B5 and BEAS-2B cells. Cells were seeded at 10^4 per well onto flat-bottomed 96-well culture plates. They were treated with either DMSO or increasing concentration of the corresponding compound for 48 h. Then, they were incubated with 20 μL of 3-(4,5-dimethylthiazol-2-yl)-2,5-diphenyltetrazolium bromide (MTT) (2 mg /mL stock; Aldrich) for 2,5 h and analyzed for their ability to generate a purple formazan dye. These formazan crystals were dissolved in 50 μL of DMSO. The absorbance was measured at a wavelength of 550 nm and the ratio of viable cells was calculated.\n(§3) Results are expressed as cell viability % at 10 μM. Selectivity index were calculated as the ratio of the IC50 values determined for the non-malignant and the tumor cells in breast (IC50 (184B5)/IC50 (MCF-7)) and lung (IC50 (BEAS-2B)/IC50 (HTB-54)) cell lines. Data were obtained from at least three independent experiments performed in triplicates."}, "MDA-MB-231 cells": {"system": "MDA-MB-231 cells", "test": "MTT cell viability assay, MDA-MB-231", "assay_type": "cell-based", "settings": "Homo sapiens, MDA-MB-231, 48 h, read-out: Cell growth % at 10 µM, MDA-MB-231", "procedure": "as §1, §2, §3"}, "OVCAR-8 (ovarian)": {"system": "OVCAR-8 (ovarian)", "test": "NCI-60 Five-Dose assay, OVCAR-8", "assay_type": "cell-based", "settings": "Homo sapiens, 48 h", "procedure": "(§4) Compounds 14a and 17a were submitted to the Developmental Therapeutics Program (DTP) of National Cancer Institute (NCI). Cytotoxicity activity was evaluated by performing One-Dose screening (10^−5 M) against a panel of 60 human tumor cell lines. […] Cells grew in the RPMI 1640 medium containing 5% fetal bovine serum and 2 mM L-glutamine and were inoculated into 96-well microtiter plates in 100 μL at plating densities ranging from 5.000 to 40.000 cells/well. The microtiter plates inoculated with cells were incubated at 37 °C, in 5% humidified CO2 for 24 h prior to addition of experimental drugs. Then, experimental drugs were added, and the microtiter plates were incubated for 48 h. The protocol is available on https://dtp.cancer.gov/discovery_development/nci-60/methodology.htm accessed on 31 December 2022."}, "[1]": {"system": "NCI-H322M (non-small cell lung)", "test": "NCI-60 Five-Dose assay, NCI-H322M", "assay_type": "cell-based", "settings": "Homo sapiens, 48 h", "procedure": "as §4"}, "HTB-54 cells": {"system": "HTB-54 cells", "test": "MTT cell viability assay, HTB-54", "assay_type": "cell-based", "settings": "for viability at 10 µM / IC50: HTB-54, 48 h, MTT; for viability at 10 µM: read-out: Cell growth % at 10 µM, HTB-54; for SI (lung): IC50 (BEAS-2B)/IC50 (HTB-54)", "procedure": "as §1, §2, §3"}, "[2]": {"system": "HTB-54, HT-29, HCT116 and MCF-7 cancer cell lines", "test": "MTT IC50, all tested cancer cell lines", "assay_type": "cell-based", "settings": "48 h", "procedure": "as §1\nas §2, with “calculated. […]” for “calculated.”"}, "AChE": {"target": "T1, AChE (Rattus norvegicus, UniProt P37136)", "T1 construct": "from tissue; host or cells: frontal cortex of male Wistar rats (crude homogenate)", "T1 sequence (P37136 32-614)": "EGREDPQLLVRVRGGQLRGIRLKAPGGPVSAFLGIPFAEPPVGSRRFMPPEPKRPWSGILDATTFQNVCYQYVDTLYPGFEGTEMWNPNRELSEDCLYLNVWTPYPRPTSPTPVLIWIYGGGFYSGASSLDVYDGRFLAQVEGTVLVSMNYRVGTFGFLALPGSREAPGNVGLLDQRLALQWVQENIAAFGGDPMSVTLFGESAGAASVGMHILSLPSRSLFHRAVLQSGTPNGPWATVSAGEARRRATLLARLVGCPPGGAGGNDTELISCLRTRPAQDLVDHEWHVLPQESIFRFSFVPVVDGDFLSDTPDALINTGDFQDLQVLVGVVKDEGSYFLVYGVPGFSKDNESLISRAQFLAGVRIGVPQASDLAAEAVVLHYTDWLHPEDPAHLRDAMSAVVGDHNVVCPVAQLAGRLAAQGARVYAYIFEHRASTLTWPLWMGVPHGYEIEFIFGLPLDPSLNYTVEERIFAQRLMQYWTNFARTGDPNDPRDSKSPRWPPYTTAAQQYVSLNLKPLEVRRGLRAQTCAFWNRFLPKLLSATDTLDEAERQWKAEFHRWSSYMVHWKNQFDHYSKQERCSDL", "test": "AChE inhibition by Ellman's method (rat frontal cortex homogenate)", "assay_type": "biochemical", "procedure": "Frontal cortex tissue obtained from male Wistar rats was homogenized in 39 volumes of 75 mM sodium phosphate buffer (pH 7.4). A mixture of 260 μL containing the compounds assessed, acetylthiocholine iodide and 5 μL tissue homogenate was incubated for 8 min. The reaction was then terminated by adding 50 μL 3% (w/v) sodium dodecyl sulphate followed by 50 μL 0.2% (w/v) 5,5′-dithio-bis(2-nitrobenzoic) acid to produce the yellow anion of 5-thio-2-nitro-benzoic-acid. The extent of the color production was measured spectrophotometrically at 405 nm using Multiskan Ex (Thermo Electron Corporation). […] Results are expressed as the mean ± SD and each experiment was repeated three times."}, "HT-29 cells": {"system": "HT-29 cells", "test": "MTT cell viability assay, HT-29", "assay_type": "cell-based", "settings": "Homo sapiens; for viability at 10 µM: HT-29, 10 µM, 48 h, read-out: Cell growth % at 10 µM, HT-29; for IC50: HT-29, 48 h", "procedure": "as §1, §2, §3"}, "[3]": {"system": "HTB-54, DU-145, HT-29 and MDA-MB-231 cancer cell lines", "test": "cells", "assay_type": "cell-based", "settings": "against the panel of the four cancer cell lines", "procedure": "as §1, §2\nAs a first approach, all the compounds were tested in vitro against lung (HTB-54), prostatic (DU-145), colon (HT-29), and triple-negative breast (MDA-MB-231) cancer cell lines at two concentrations (50 and 10 µM) for 48 h. Then, the MTT colorimetric assay was used to evaluate cell proliferation after the treatment. The data are expressed as the percentage of cell growth ± SD in at least three independent experiments performed in quadruplicates (Table S1)."}},
  "data": [
    {"smiles": "C=CC[Se]C(=O)c1ccccc1OC(C)=O", "note": "[Compound 14a, 2-(allylselanylcarbonyl)phenylacetate]", "values": [
      {"measurement": "IC50", "setting": "184B5 cells", "value": "10.2 ± 0.1", "unit": "µM"},
      {"measurement": "viability at 10 µM", "setting": "MDA-MB-231 cells", "value": "38.8 ± 3.6", "unit": "%"},
      {"measurement": "GI50", "setting": "OVCAR-8 (ovarian)", "value": 1.5, "unit": "µM"},
      {"measurement": "GI50", "setting": "[1]", "value": 0.34, "unit": "µM"},
      {"measurement": "viability at 10 µM", "setting": "HTB-54 cells", "value": "34.2 ± 6.2", "unit": "%"},
      {"measurement": "IC50", "setting": "HTB-54 cells", "value": "9.9 ± 1.1", "unit": "µM"},
      {"measurement": "SI (lung)", "setting": "HTB-54 cells", "value": 0.7},
      {"measurement": "IC50", "setting": "[2]", "value": "< 10", "unit": "µM"},
      {"measurement": "IC50", "setting": "AChE", "value": "0.9 ± 0.2", "unit": "µM"},
      {"measurement": "% AChE Inhibition", "setting": "AChE; at 10^−6 M, Ellman's method", "value": "43.5 ± 2.6", "unit": "%"},
      {"measurement": "inhibition at 1 µM", "setting": "AChE; at 10^−6 M, Ellman's method", "value": 43.5, "unit": "%"},
      {"measurement": "viability at 10 µM", "setting": "HT-29 cells", "value": "53.9 ± 5.3", "unit": "%"},
      {"measurement": "IC50", "setting": "HT-29 cells", "value": "6.4 ± 1", "unit": "µM"},
      {"measurement": "viability at 10 µM", "setting": "[3]", "value": "< 55", "unit": "%"}
    ]},
    {"smiles": "C=CC[Se]C(=O)Cc1c(C)n(C(=O)c2ccc(Cl)cc2)c2ccc(OC)cc12", "note": "[Compound 17a, Se-allyl 2-[1-(4-chlorobenzoyl)-5-methoxy-2-methyl-1H-indol-3-yl]ethaneselenoate]", "values": [
      {"measurement": "IC50", "setting": "184B5 cells", "value": "13.3 ± 3.9", "unit": "µM"},
      {"measurement": "viability at 10 µM", "setting": "MDA-MB-231 cells", "value": "26.5 ± 5.6", "unit": "%"},
      {"measurement": "GI50", "setting": "OVCAR-8 (ovarian)", "value": 1.7, "unit": "µM"},
      {"measurement": "GI50", "setting": "[1]", "value": 0.42, "unit": "µM"},
      {"measurement": "viability at 10 µM", "setting": "HTB-54 cells", "value": "21.9 ± 6.5", "unit": "%"},
      {"measurement": "IC50", "setting": "HTB-54 cells", "value": "7.9 ± 1.9", "unit": "µM"},
      {"measurement": "SI (lung)", "setting": "HTB-54 cells", "value": 0.8},
      {"measurement": "IC50", "setting": "[2]", "value": "< 10", "unit": "µM"},
      {"measurement": "inhibition at 1 µM", "setting": "AChE; at 10^−6 M, Ellman's method", "value": "19.2 ± 8.3", "unit": "%"},
      {"measurement": "viability at 10 µM", "setting": "HT-29 cells", "value": "38.7 ± 6", "unit": "%"},
      {"measurement": "IC50", "setting": "HT-29 cells", "value": "5.9 ± 0.8", "unit": "µM"},
      {"measurement": "viability at 10 µM", "setting": "[3]", "value": "< 55", "unit": "%"}
    ]}
  ]
}
